Reference: patent publication US12295962B2, “Polymorphic compounds and uses thereof” (AskAt Inc., priority 2018, dated 2025)

Legend:
Assay type in all cases: in vivo, BALB/c mice
[1] = test system: CT-26 mouse colon adenocarcinoma; assay: Anti-tumor activity in the CT-26 colon adenocarcinoma mouse model (with anti-PD-1, 10 mice per cohort); details: for tumor growth kinetics: during the period of dosing, compared with vehicle treated mice, FIG. 22
Procedure: The antitumor activity of Compound B as a single agent and combined with a mouse anti-PD-1 antibody was evaluated in the CT-26 mouse colon adenocarcinoma model grown in BALB/c mice. Mice were inoculated subcutaneously in the right flank with 5×10^5 tumor cells.
When tumors reached an average size of 71 mm^3 (6 days after tumor cell inoculation) dosing was initiated. The dosing regimens in the 8 separate cohorts comprising 10 mice each are as follows: […]

[2] = test system: CT-26 mouse colon adenocarcinoma; assay: Anti-tumor activity in the CT-26 model, additional experiment (with anti-PD1, 7 mice per cohort); details: during the period of dosing; single agents (Compound B 15 mg/kg BID p.o.; anti-PD1 10 mg/kg BIW i.p.); compared with vehicle group; FIG. 26
Procedure: (§1) The antitumor activity of Compound B as a single agent and combined with a mouse anti-PD1 antibody was evaluated in the CT-26 mouse colon adenocarcinoma model grown in BALB/c mice in an additional experiment. Mice were inoculated subcutaneously in the right flank with 5×10^5 tumor cells. When tumors reached an average size of 91 mm^3 dosing was initiated. The dosing regimens in the 4 separate cohorts comprising 7 mice each are as follows: […]

4T1 mouse breast cancer [3] = assay: Anti-tumor activity in the 4T1 breast cancer mouse model (with anti-CTLA4)
Procedure: The antitumor activity of Compound B (as described in example 14 above) as a single agent and combined with a mouse anti-CTLA4 antibody was evaluated in the 4T1 mouse breast cancer model grown in BALB/c mice. Mice were inoculated subcutaneously in the right flank with 3×10^5 tumor cells. When tumors reached an average size of 100 mm^3 (7 days after tumor cell inoculation) dosing was initiated.

4T1 mouse breast cancer [4] = assay: Anti-tumor activity in the 4T1 model, additional experiment (with anti-PD1, 7 mice per cohort); details: during the period of dosing; Compound B 15 mg/kg BID; compared with vehicle group and anti-PD1 dosed alone; FIG. 27
Procedure: as §1, with “4T1” for “CT-26”, “breast cancer” for “colon adenocarcinoma”, “3×10^5” for “5×10^5”, “97” for “91”

[5] = test system: immune cells of CT-26 tumors; assay: Immune cell composition of CT-26 tumors by multi-color flow cytometry; details: after 7 days dosing, Compound B 15 mg/kg BID p.o., anti-PD1 10 mg/kg Q3D i.p., vs vehicle
Procedure: The immune cell composition of Compound B (as described in example 14 above) as a single agent and combined with a mouse anti-PD1 antibody was evaluated in the CT-26 mouse colon adenocarcinoma model grown in BALB/c mice. Mice were inoculated subcutaneously in the right flank with 5×10^5 tumor cells. When tumors reached an average size of 85 mm^3 dosing was initiated. The dosing regimens in the 4 separate cohorts comprising 10 mice each are listed as follows:
After dosing animals for 7 days, tumors were resected and used to prepare single cell suspensions. Live cells representing tumor and immune cells were stained with cocktails of antibodies targeting multiple immune cell markers (anti-CD45, anti-CD3, anti-CD4, anti-CD8, anti-CD25, anti-FoxP3, anti-PD-1, anti-CD11c) conjugated to different fluorescent tags. The stained cells were fixed in 4% paraformaldehyde and quantified using a multi-color flow cytometer (Fortessa). The data was analyzed with FloJo software.

[6] = 99 days after tumor inoculation, 10 mice per cohort

Compound: C[C@H](NC(=O)c1cc(Cl)cnc1Oc1cccc(F)c1)c1ccc(C(=O)O)cc1 [Compound B]
- mice still alive [1, 6]: 1 out of 10
- mice tumor free [1, 6]: 1 out of 10
- tumor growth kinetics ([1]; 15 mg/kg BID p.o.): not notably different
- tumor growth kinetics ([1]; 15 mg/kg QD p.o.): not notably different
- tumor growth kinetics [2]: less than that of the vehicle group
- mice still alive (4T1 mouse breast cancer [3]; 47 days after tumor inoculation, 10 mice per group): none
- tumor growth kinetics (4T1 mouse breast cancer [3]; during the period of dosing, single agents (Compound B 15 mg/kg BID; anti-CTLA4), relative to vehicle treated mice, FIG. 24): decreased relative to the vehicle treated mice
- tumor growth kinetics (4T1 mouse breast cancer [4]): less than that of the vehicle group and anti-PD1 when dosed alone
- regulatory T cells (CD45, CD4, FoxP3, CD25 positive) in tumor ([5]; FIG. 28a): significant decrease
- percentage of dendritic cells (CD45, CD11c positive) in tumor ([5]; FIG. 28b): increased percentage
- percentage of activated T cells (CD45, CD3, CD8; CD25 expression) in tumor ([5]; FIG. 28c): did not
